Measurements published in PubChem BioAssay (NCI).
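Test compounds were applied to cells in 96-well plates for 48 hours at 5 doses. TGI is the concentration that stops growth completely.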

Columns and labels:
Assay in all cases: growth of human tumour cells (NCI), 48 h
[1] = tested on: SK-MEL-5 melanoma
[2] = tested on: HOP-62 NSCLC
[3] = tested on: U251 CNS
[4] = tested on: SK-MEL-28 melanoma
[5] = tested on: HCC-2998 colon

| SMILES | TGI [1] [µM] | TGI [2] [µM] | TGI [3] [µM] | TGI [4] [µM] | TGI [5] [µM] |
| --- | --- | --- | --- | --- | --- |
| [N-]=[N+]=Nc1c(C=O)c(=O)n(-c2ccccc2)c2ccccc12 | 27.5 | > 100 | > 100 | 35.3 | 40.1 |
| CCN(CC)CCNC(=O)c1ccc(I)cc1 | > 100 | > 100 | > 100 | > 100 | > 100 |
| O=C(N/N=C/c1ccc([N+](=O)[O-])o1)c1ccc(C(=O)N/N=C/c2ccc([N+](=O)[O-])o2)cc1 | 55.6 | > 100 | > 100 | 75.7 | – |
| Cc1cc(C)c2c(c1)CC1(Cc3c(C)ccc(C)c3C1=O)C2=O (stereo unspecified) | > 100 | – | > 100 | > 100 | > 100 |
| O=C(Cc1csc(N=Nc2c(O)[nH]c3ccccc23)n1)Nc1ccccc1 | > 100 | 52.2 | 55.2 | 46.5 | 94.3 |
| COC(C(=O)C(O)C(C)O)C1CC2C=C3C=C(OC4CC(OC5CC(O)C(OC)C(C)O5)C(OC(C)=O)C(C)O4)C(C)C(=O)C3=C(O)C2=C(O)C1OC1CC(OC2CC(OC3CC(C)(O)C(OC(=O)C(C)C)C(C)O3)C(O)C(C)O2)C(O)C(C)O1 (stereo unspecified) | < 0.01 | < 0.01 | – | < 0.01 | < 0.01 |
| CCOC(=O)c1sc(N/N=C2\NC(=O)/C(=C/c3ccc([N+](=O)[O-])cc3)S2)nc1C | 31 | 38 | > 100 | > 100 | 85.3 |
| NC(=O)NC(=O)c1cccc(CNc2ccc(C(=O)N[C@@H](CCC(=O)O)C(=O)O)cc2)n1 | > 100 | – | > 100 | > 100 | > 100 |
| COC(=O)C1c2c(c3ccccc3n2C(=O)OC)CCN2CCC1C(S(=O)(=O)c1ccccc1)C2=O (stereo unspecified) | > 100 | > 100 | > 100 | > 100 | – |
| Cc1ccc(S(=O)(=O)N2C[C@](O)(c3ccccc3)[C@H]2C)cc1 | > 100 | > 100 | > 100 | > 100 | – |
| O=C(O)Cc1ccc(Oc2nc3ccccc3nc2C(=O)O)cc1 | > 100 | > 100 | > 100 | > 100 | > 100 |
| COc1cc(NC(C)=O)ccc1C(=O)NN1C(=O)C(Cl)C1c1ccco1 (stereo unspecified) | > 100 | – | – | > 100 | – |
| Cn1c(-c2cccs2)cc(-c2cccs2)c1-c1ccco1 | > 100 | > 100 | > 100 | > 100 | > 100 |
| CCOC(=O)Cc1csc2[n+]1C(=O)/C(=C\c1cccc(Cl)c1Cl)S2 | 30.6 | 46.9 | 64.6 | 50.9 | 39.7 |
| Brc1c(C#CCC(c2ccccc2)(c2ccccc2)c2ccccc2)ccc(C#CCC(c2ccccc2)(c2ccccc2)c2ccccc2)c1Br | > 100 | – | > 100 | > 100 | > 100 |
| Cc1c2c(n(CCc3ccccc3)c1C)N(C)N=C(C#N)S2(=O)=O | > 100 | > 100 | > 100 | > 100 | > 100 |
| Cc1ccc2c(sc(-c3ccc4c(c3)sc(-c3ccc5c(c3)sc(-c3ccc(N(C)C)cc3)[n+]5C)[n+]4C)[n+]2C)c1S(=O)(=O)O (tested in a mixture with another compound) | > 100 | – | > 100 | > 100 | > 100 |

| SMILES | TGI [1] [µM] | TGI [2] [µM] | TGI [3] [µM] | TGI [4] [µM] | TGI [5] [µM] |
| --- | --- | --- | --- | --- | --- |
| c1ccc(P(CCP(c2ccccn2)c2ccccn2)c2ccccc2)cc1 | > 100 | > 100 | > 100 | > 100 | > 100 |
| CC(=O)Oc1cc2c(c3ncccc13)OC(C)(C)C2 | 25.4 | 30.6 | 31.8 | > 100 | > 100 |
| CN(C)CC1COC2Cc3ccccc3C1O2 (stereo unspecified) | > 100 | > 100 | > 100 | > 100 | > 100 |
| OC[C@]1(n2nc3ccccc3n2)OC[C@@H]1c1ccccc1 | > 100 | > 100 | > 100 | > 100 | > 100 |
| CC(C)OP(=O)(OC(C)C)/C(C#N)=C/c1ccco1 | > 100 | > 100 | > 100 | > 100 | > 100 |
| Cc1nn(C(=O)c2ccncc2)c2c1C(c1ccccc1)SC(N)=N2 (stereo unspecified) | > 10 | > 10 | > 10 | > 10 | > 10 |
| Cc1ccc2c(n1)C(=O)C=CC2=O | 29.4 | > 58.3 | 40.6 | 15.3 | 33.5 |
| Cc1nc2c(nc1C)-c1c(c3c(n1C)C(=O)CCC3)C(=O)C2=O | 0.844 | 2.37 | 0.533 | 1.88 | 4.06 |
| COc1ccc2c(c1)/C(=C\c1c(C)nc3sc(C)cn13)C(=O)N2 | 4.62 | > 100 | 7.2 | > 100 | 3.85 |
| Cc1oc(N)c(S(=O)(=O)c2ccc(Cl)cc2)c1C | > 100 | – | > 100 | > 100 | > 100 |
| C=C(C)C1CC/C(C)=C/CC[C@]2(C)O[C@H]2CC/C(COC(C)=O)=C\[C@@H]1O (stereo partly specified) | > 50 | > 50 | > 50 | > 50 | > 50 |
| C=C(C)CC1(O)C(=O)C(OCC)=C1OCC (stereo unspecified) | > 100 | > 100 | > 100 | > 100 | – |
| Cc1cc(S(=O)(=O)/N=C(\[N-]S(=O)(=O)c2ccc(Cl)cc2)[n+]2ccc(N(C)C)cc2)c(S)cc1Cl | > 100 | > 100 | > 100 | > 100 | > 100 |
| C/C(=N\Nc1nc2ccccc2n1C)c1cnccn1 | 10 | 37 | > 100 | – | > 100 |
| COc1cc(/C=C2/SC(c3ccccc3)N(c3ccccc3)C2=O)cc(OC)c1OC (stereo unspecified) | > 100 | > 100 | > 100 | > 100 | > 100 |
| C/C=C\C(CC(=O)NCCC1CN(S(=O)(=O)C(F)(F)F)c2ccccc21)CC(=O)OC (stereo unspecified) | 41.4 | > 100 | > 100 | > 100 | > 100 |
